US20140135217A1, “Use of Tetracyanodithiines as Fungicides” (BASF SE, priority 2011, published 2014)

Assays:
[1] = tested on: Botryis cinerea; assay type: cell-based; conditions: Botrci; vs compound-free control (100%); 405 nm, 7 days after inoculation; concentration not given
[2] = tested on: Septoria glycines; assay type: cell-based
[3] = tested on: Corynespora cassiicola; assay type: cell-based
[4] = tested on: Cochliobolus miyabeanus; test: Microtiter test, brown spot on rice (Cochmi); assay type: cell-based; conditions: vs compound-free control (100%), 405 nm, 7 days after inoculation, concentration not given
[5] = tested on: Colletotrichum lagenarium; assay type: cell-based
[6] = tested on: Colletotrichum truncatum; assay type: cell-based
[7] = tested on: Alternaria solani; assay type: cell-based
[8] = tested on: Pyrenophora teres; assay type: cell-based
[9] = tested on: Phytophthora infestans; assay type: cell-based; conditions: Phytin; pea juice-based or DDC medium; vs compound-free control (100%); 405 nm, 7 days after inoculation; concentration not given
[10] = tested on: Phakopsora pachyrhizi; test: Glasshouse trial: protective control of soy bean rust on soy beans; assay type: in vivo; conditions: soy bean seedlings sprayed with 1000 ppm, inoculated 1 day later, assessed after fourteen days; untreated plants 90% infected
Protocol: The spray solutions were prepared in several steps: The stock solution were prepared: a mixture of acetone and/or dimethylsulfoxide and the wetting agent/emulsifier Wettol, which is based on ethoxylated alkylphenoles, in a relation (volume) solvent-emulsifier of 99 to 1 was added to 25 mg of the compound to give a total of 10 ml. Water was then added to total volume of 100 ml. This stock solution was diluted with the described solvent-emulsifier-water mixture to the given concentration. Leaves of pot-grown soy bean seedlings were sprayed to run-off with an aqueous suspension, containing the concentration of active ingredient or their mixture as described below. The plants were allowed to air-dry. […] Then the plants were inoculated with spores of Phakopsora pachyrhizi. […] The extent of fungal attack on the leaves was visually assessed as % diseased leaf area.

[11] = tested on: Fusarium oxysporum; assay type: cell-based
[12] = tested on: Rhynchosporium secalis; assay type: cell-based
[13] = tested on: Fusarium culmorum; assay type: cell-based
[14] = tested on: Cercospora sojina; assay type: cell-based
[15] = tested on: Rhizoctonia solani; assay type: cell-based
[16] = tested on: Fusarium poae; assay type: cell-based
[17] = tested on: Pyriculana oryzae; assay type: cell-based; conditions: Pyrior; vs compound-free control (100%); 405 nm, 7 days after inoculation; concentration not given
[18] = tested on: Septoria tritici; assay type: cell-based

N#CC1=C(C#N)SC(C#N)=C(C#N)S1 [compound I.A, 2,3,5,6-tetracyano-[1,4]dithiine]
relative growth in % of the pathogen [1]: 1%
relative growth in % of the pathogen [2]: 0%
relative growth in % of the pathogen [3]: 1%
relative growth in % of the pathogen [4]: 0%
relative growth in % of the pathogen [5]: 0%
relative growth in % of the pathogen [6]: 0%
relative growth in % of the pathogen [7]: 0%
relative growth in % of the pathogen [8]: 0%
relative growth in % of the pathogen [9]: 0%
infection (% diseased leaf area) [10]: 4%
relative growth in % of the pathogen [11]: 0%
relative growth in % of the pathogen [12]: 0%
relative growth in % of the pathogen [13]: 0%
relative growth in % of the pathogen [14]: 0%
relative growth in % of the pathogen [15]: 0%
relative growth in % of the pathogen [16]: 0%
relative growth in % of the pathogen [17]: 0%
relative growth in % of the pathogen [18]: 0%
